Values quoted from earlier work as cited in paper PMC10891214, “Effects of food and ethnicity on the pharmacokinetics of venadaparib, a next-generation PARP inhibitor, in healthy Korean, Caucasian, and Chinese male subjects” (Investigational New Drugs, 2023).

Test system: patient-derived xenograft
Parameters: method as in PMID 36808277
Details: patient-derived xenograft mouse model; cited from earlier work

Compound: O=C(c1cc(Cc2n[nH]c(=O)c3ccccc23)ccc1F)N1CCN(C(=O)C2CC2)CC1 [olaparib, reference compound]
- Tumor growth inhibition rate: 118.2%
